Measurements reported in article PMC12066977, “Alkyl Tail Variation on Chalcone‐Based Quaternary Pyridinium Salts as Rule‐of‐Thumb for Antimicrobial Activity” (Archiv Der Pharmazie, 2025).

Columns and labels:
[1] = test system: human red blood cells (hRBCs); experiment: Hemolytic activity assay; type: cell-based; details: 25 µM, 90 min, 37°C
Experimental: The hemolytic activity of some selected compounds was evaluated as the amount of hemoglobin released by the disruption of human red blood cells (hRBCs). For the experiments, fresh hRBCs were collected by centrifugation at 1500g for 10 min, washed three times with PBS, and resuspended to a final concentration of 4% w/v hRBCs in PBS. Then, 100 µL of hRBCs suspension and an equal volume of the twofold dilutions of the antimicrobial peptides were mixed in a 96‐well plate and incubated for 90 min at 37°C. After centrifugation at 1000g for 5 min, the supernatants were transferred into a clear 96‐well plate, and OD405nm was read. Untreated hRBCs (incubated with PBS) and hRBCs incubated with 1% Triton X‐100 were employed as negative and positive controls, respectively. The hemolysis percentage was calculated as [OD405nm (sample) − OD4_05nm (negative control)]/[OD405nm (positive control) − OD405nm (negative control)] × 100. Minimal hemolytic concentrations (MHCs) were defined as the compound concentration causing 10% hemolysis. Three independent experiments were performed in triplicate.

[2] = test system: C. albicans biofilm; experiment: Inhibition of biofilm formation (crystal violet staining); type: cell-based, Candida albicans; details: 3.125 µM; 24 h, CV staining
Experimental: The ability of some selected compounds to inhibit biofilm formation was assessed by established protocols with minor modifications. In short, exponential cultures of S. aureus, E. coli, and C. albicans grown in Tryptic Soy broth (TSB, Sigma‐Aldrich, St. Louis, MO, USA) were adjusted to a final density of 10^5 CFU/mL. Aliquots of 100 µL of the microbial cultures were transferred to a 96‐well flat‐bottom polystyrene microplate, and then incubated at 37°C for 90 min to promote bacterial adhesion. Thereafter, wells were slowly rinsed with PBS to remove nonattached cells, and 100 µL of TSB supplemented with 1% glucose containing the twofold serial dilutions of the compounds was added. After incubation at 37°C for 24 h, the free‐floating cells were removed, and the biofilms were carefully washed with PBS. The biomass was quantified by a standardized crystal violet (CV) staining. Briefly, 100 µL of CV solution (0.1% in water) was added to each well containing a completely air‐dried biofilm, and incubated for 30 min at 37°C. […] Finally, the colored supernatants were transferred to a new microplate, and the OD550nm was measured. The percentage inhibition of biofilm formation in the different experimental conditions was calculated relative to the biofilm mass formed in the absence of compounds (positive control).

[3] = test system: E. coli; experiment: Colistin association assay; type: cell-based, Escherichia coli; details: colistin at sub-inhibitory concentration (MIC/8 = 0.027 µM), versus compound alone
Experimental: This is a confirmation of the ability of these new QPySs to also affect Gram‐negative proliferation once they pass through the OM.
The dry powder of the chalcone‐based QPySs was resuspended in dimethylsulfoxide (DMSO) at 20 mM and used as stock solutions. For biological investigations, compounds were used in the range 100–0.78 µM, and the solvent in the corresponding percentage range. The following commercially available antimicrobials and toxic clinical drugs were purchased from Sigma‐Aldrich (St. Louis, MO, USA), dissolved in water, and used as reference controls. Gentamicin and ampicillin were used in the range 107.69–0.82 µM and 143.23–1.12 µM, respectively; the colistin was used at 0.03 µM in association with the chalcone‐based QASs with E. coli. The fluconazole was used in the assays with C. albicans in the range 3.27–0.03 µM. […]
In short, microbial inocula were prepared at 0.5 McFarland in PBS and, subsequently, bacterial suspensions were diluted 1:200 in Mueller–Hinton broth (Sigma‐Aldrich, St. Louis, MO, USA), while fungal inoculum was diluted 1:20 in RPMI‐1640 medium (Gibco®, ThermoFisher Scientific Inc., Waltham, MA, USA), containing glucose 2%, 0.3% levo‐glutamine buffered to pH 7.0 with 0.165 M 3‐(N‐morpholino) propanesulfonic acid (MOPS). […] The plate was incubated at 37°C for 24 h, and subsequently the optical density at 630 nm (OD630nm) was spectrophotometrically measured. […]

C#CCOc1ccc(C(=O)/C=C/c2ccc[n+](CCCCCCCCCCCCCC)c2)c(OCC#C)c1.[Br-] [Compound 6, (E)‐3‐{3‐[2,4‐Bis(prop‐2‐yn‐1‐yloxy)phenyl]‐3‐oxoprop‐1‐en‐1‐yl}‐1‐tetradecylpyridin‐1‐ium bromide]
hemolytic activity [1]: 88.7%
reduction in C. albicans biofilm formation [2]: 68.3%
MIC decrease for E. coli in association with colistin [3]: fourfold
